How the values were obtained:
human MDR1 = human MDR1 (Homo sapiens, UniProt P08183); test: Vesicular transport assay, inside-out membrane vesicles expressing human MDR1; conditions: 10 min
Description: (§1) Inside-out membrane vesicles (5 mg protein/mL), prepared from insect cells expressing human multidrug resistance-associated protein (MRP) 2, MRP3, MRP4, breast cancer resistance protein (BCRP), bile salt export pump (BSEP), and multidrug resistance protein (MDR) one and rat Mrp2, Mrp4, Bcrp, and Bsep, and vesicles (5 mg protein/mL; prepared from the insect cells expressing no ABC transporter; serving as negative control) were obtained from Genomembrane (Kanazawa, Japan).
(§2) The test Danshen compounds at 100 µM final concentration were separately incubated with the membrane vesicles for 10 min. Buffer C (50 mM MOPS-tris, 70 mM KCl, 7.5 mM MgCl2, pH 7.0) was used for preincubation and incubation, while buffer D (40 mM MOPS-tris, 70 mM KCl, pH 7.0) was used for vesicle washing. The transport rate (pmol/mg protein/min) of the test Danshen compound was calculated using Equation (2): Transport=(CV×VV)/T/WV (2) where C V, V V, T, and W V represent concentration of the compound in vesicular lysates supernatant (μM), volume of the lysates (μL), incubation time (10 min), and amount of vesicle protein amount per well (0.05 mg), respectively. Differential transport of the test Danshen compound between ATP-containing vesicles and AMP-containing vesicles was defined as net transport ratio (TransportATP/TransportAMP ratio). […] All the incubation samples were analyzed by liquid chromatography/mass spectrometry.

rat Mrp2 = rat Mrp2 (Rattus norvegicus, UniProt Q63120); test: Vesicular transport assay, inside-out membrane vesicles expressing rat Mrp2; conditions: for TransportATP/TransportAMP ratio (net transport ratio): 10 min
rat Mrp2, sequence (Q63120 whole entry): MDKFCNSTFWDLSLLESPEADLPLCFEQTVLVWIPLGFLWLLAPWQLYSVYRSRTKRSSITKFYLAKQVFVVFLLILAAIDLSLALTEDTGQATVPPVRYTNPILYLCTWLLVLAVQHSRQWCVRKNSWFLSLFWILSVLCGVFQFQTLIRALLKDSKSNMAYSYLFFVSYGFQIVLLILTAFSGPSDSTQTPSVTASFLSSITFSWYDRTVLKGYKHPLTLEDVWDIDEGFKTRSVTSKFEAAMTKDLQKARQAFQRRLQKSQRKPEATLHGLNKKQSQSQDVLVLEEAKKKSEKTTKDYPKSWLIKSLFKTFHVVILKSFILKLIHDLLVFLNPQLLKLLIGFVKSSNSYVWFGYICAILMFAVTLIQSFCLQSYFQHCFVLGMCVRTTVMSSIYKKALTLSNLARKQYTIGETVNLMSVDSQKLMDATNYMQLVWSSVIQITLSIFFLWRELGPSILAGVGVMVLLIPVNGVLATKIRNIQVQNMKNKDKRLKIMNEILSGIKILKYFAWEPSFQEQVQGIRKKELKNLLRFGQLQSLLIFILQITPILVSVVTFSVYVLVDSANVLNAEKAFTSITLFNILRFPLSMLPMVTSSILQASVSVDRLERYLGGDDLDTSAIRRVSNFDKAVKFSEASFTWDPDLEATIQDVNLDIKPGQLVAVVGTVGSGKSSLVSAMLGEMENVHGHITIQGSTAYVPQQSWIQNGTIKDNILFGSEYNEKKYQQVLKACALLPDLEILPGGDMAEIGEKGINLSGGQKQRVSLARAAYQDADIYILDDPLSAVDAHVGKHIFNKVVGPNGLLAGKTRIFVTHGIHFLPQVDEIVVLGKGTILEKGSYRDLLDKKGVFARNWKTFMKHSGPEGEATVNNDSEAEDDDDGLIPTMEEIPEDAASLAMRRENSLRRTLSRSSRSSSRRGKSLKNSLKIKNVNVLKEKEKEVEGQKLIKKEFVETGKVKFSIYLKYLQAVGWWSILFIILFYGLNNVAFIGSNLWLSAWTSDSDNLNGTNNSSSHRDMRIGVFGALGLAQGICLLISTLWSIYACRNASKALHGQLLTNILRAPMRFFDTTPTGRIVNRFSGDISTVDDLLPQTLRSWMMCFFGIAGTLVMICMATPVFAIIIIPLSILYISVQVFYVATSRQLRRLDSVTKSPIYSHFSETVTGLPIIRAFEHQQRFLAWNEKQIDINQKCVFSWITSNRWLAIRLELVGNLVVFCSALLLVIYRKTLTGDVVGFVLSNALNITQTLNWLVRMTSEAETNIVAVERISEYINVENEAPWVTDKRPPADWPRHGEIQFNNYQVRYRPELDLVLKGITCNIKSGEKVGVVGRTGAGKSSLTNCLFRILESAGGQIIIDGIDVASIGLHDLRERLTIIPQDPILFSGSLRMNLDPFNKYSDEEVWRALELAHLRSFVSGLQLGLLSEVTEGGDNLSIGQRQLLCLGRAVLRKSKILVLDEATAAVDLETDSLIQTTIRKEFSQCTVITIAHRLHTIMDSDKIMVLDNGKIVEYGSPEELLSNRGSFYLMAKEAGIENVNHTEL
Description: as §1, §2

human OAT1 = biological target: T1, human OAT1 (Homo sapiens, UniProt Q4U2R8); test: Cellular transport assay, HEK-293 cells expressing human OAT1; conditions: for TransportTC/TransportMC ratio (net transport ratio): 10 min; for K m: human renal basolateral uptake OAT1, 5 min incubation, concentrations in Table 1
T1 sequence (Q4U2R8 1-563): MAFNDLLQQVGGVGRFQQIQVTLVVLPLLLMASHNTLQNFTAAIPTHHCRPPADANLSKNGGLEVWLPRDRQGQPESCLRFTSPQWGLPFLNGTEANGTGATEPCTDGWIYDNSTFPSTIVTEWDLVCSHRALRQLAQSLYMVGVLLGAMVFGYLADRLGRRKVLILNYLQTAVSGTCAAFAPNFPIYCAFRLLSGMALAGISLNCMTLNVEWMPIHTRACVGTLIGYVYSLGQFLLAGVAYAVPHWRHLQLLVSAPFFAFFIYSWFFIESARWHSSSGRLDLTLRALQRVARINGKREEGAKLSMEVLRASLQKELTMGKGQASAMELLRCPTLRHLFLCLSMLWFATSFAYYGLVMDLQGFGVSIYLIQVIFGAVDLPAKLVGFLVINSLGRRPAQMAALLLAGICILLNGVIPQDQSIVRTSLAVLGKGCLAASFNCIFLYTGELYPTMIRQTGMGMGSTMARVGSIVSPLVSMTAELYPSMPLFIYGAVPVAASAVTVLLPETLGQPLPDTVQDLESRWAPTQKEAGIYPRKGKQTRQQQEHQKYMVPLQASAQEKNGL
Description: Briefly, HEK-293 cells were grown, at 37°C and 5% CO2, in Dulbecco’s modified Eagle’s medium, which was fortified with 10% fetal bovine serum, 1% minimal essential medium nonessential amino acids, and 1% antibiotic-antimycotic solution. A day before transfection, cells were seeded onto 24-well poly-D-lysine-coated plates at a density of 2 × 10^5 cells per well. After incubation at 37°C and 5% CO2 for 24 h, the expression plasmid and the empty vector were introduced separately into the HEK293 cells with Lipofectamine 2000 transfection reagent (Invitrogen, Carlsbad, CA, United States), according to the manufacturer’s protocol to yield transporter-expressing cells and mock cells, respectively.
Transport studies were performed 48 h after the transfection. […] Differential uptake between the transfected cells and mock cells was defined as net transport ratio (TransportTC/TransportMC ratio), where TransportTC and TransportMC are the transport rates of a test Danshen compound into transfected and mock cells, respectively. […] The determination was performed under linear uptake conditions by incubation for 5 min. Table 1 summarizes the final concentrations of the test Danshen compounds for different transporters. All the incubation samples were analyzed by liquid chromatography/mass spectrometry.
GraFit software (version 5.0; Erithacus Software Ltd, Surrey, United Kingdom) was used to determine the K m and V max values by nonlinear regression analysis of initial transport rates as a function of substrate concentration.

[1] = Danshen phenolic acid at 100 μM final concentration, human MDR1 vesicles
[2] = Danshen phenolic acid at 100 μM final concentration, rat Mrp2 vesicles
[3] = Danshen phenolic acid at 100 μM final concentration, human OAT1-transfected vs mock cells

human MDR1, sequence (P08183 whole entry): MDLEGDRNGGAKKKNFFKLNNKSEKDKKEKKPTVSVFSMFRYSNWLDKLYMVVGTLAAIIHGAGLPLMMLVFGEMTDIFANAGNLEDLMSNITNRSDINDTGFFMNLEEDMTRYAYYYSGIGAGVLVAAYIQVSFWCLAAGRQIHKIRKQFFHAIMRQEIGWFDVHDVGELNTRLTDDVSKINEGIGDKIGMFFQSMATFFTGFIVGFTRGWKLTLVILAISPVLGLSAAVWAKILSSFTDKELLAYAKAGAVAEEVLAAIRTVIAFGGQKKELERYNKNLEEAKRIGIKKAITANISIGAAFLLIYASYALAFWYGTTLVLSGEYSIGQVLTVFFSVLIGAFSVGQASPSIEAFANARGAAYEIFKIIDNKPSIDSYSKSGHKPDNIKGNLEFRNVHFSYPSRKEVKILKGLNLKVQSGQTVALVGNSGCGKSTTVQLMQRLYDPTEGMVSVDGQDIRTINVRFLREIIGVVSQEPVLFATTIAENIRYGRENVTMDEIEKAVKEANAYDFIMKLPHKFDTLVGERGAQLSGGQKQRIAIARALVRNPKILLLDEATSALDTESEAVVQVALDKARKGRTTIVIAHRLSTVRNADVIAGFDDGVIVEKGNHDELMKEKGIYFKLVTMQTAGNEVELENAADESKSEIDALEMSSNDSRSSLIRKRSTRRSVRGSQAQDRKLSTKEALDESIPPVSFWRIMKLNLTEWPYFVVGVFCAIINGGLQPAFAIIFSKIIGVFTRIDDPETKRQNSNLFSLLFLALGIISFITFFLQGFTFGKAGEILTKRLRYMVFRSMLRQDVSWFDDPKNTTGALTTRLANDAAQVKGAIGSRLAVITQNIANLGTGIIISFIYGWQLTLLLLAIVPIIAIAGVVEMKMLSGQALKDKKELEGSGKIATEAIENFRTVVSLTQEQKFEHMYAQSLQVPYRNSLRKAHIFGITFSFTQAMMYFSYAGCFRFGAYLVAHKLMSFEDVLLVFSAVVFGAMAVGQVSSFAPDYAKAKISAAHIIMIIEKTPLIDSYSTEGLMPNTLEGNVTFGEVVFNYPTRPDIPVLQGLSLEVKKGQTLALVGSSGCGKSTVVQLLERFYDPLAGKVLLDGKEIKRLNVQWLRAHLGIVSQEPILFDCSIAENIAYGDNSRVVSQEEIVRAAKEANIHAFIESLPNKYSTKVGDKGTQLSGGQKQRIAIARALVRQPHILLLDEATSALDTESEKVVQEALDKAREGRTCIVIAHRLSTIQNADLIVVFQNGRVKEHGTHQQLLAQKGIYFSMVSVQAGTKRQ

Compound | TransportATP/TransportAMP ratio (net transport ratio) (human MDR1; [1]) | TransportATP/TransportAMP ratio (net transport ratio) (rat Mrp2; [2]) | substrate of human OAT1 (human OAT1) | TransportTC/TransportMC ratio (net transport ratio) (human OAT1; [3]) | microsomal CLint (human OAT1; human) [µL/min/mg] | K m (human OAT1) [µM] | microsomal CLint (human OAT1; human, other cell line) [µL/min/mg] | substrate of rat Mrp2 (rat Mrp2) | TransportATP/TransportAMP ratio (net transport ratio) (human MDR1; human, 100 μM, pH 7) | TransportATP/TransportAMP ratio (net transport ratio) (rat Mrp2; rat, 100 μM, pH 7) | TransportTC/TransportMC ratio (net transport ratio) (human OAT1; human, 100 μM)
O=C(O)Cc1c(/C=C/C(=O)O[C@H](Cc2ccc(O)c(O)c2)C(=O)O)ccc(O)c1O [Salvianolic acid D, salvianolic acid D] | 0.92 ± 0.23 | 2.21 ± 0.89 | substrates | 11.7 ± 2.4 | 2.08 | 18.1 ± 2.3 |  |  |  |  | 
O=C(O)C(O)Cc1ccc(O)c(O)c1 (stereo not drawn) [Tanshinol, tanshinol] |  |  |  |  |  | 98.9 ± 7.1 | 10.5 |  |  |  | 
O=C(/C=C/c1ccc(O)c2c1[C@H](C(=O)O)[C@@H](c1ccc(O)c(O)c1)O2)O[C@H](Cc1ccc(O)c(O)c1)C(=O)O [Lithospermic acid, lithospermic acid] | 1.26 ± 0.09 | 1.83 ± 0.45 |  | 2.09 ± 0.89 |  |  |  |  |  |  | 
salvianolic acid B | 1.66 ± 0.12 | 4.43 ± 1.12 |  | 1.21 ± 0.14 |  |  |  | substrate |  |  | 
O=C(O)c1ccc(O)c(O)c1 [Protocatechuic acid, protocatechuic acid] | 0.93 ± 0.04 | 0.74 ± 0.13 | substrates | 53.1 ± 3.9 | 6.43 | 37.6 ± 2.5 |  |  |  |  | 
O=C(/C=C/c1ccc(O)c(O)c1/C=C/c1ccc(O)c(O)c1)O[C@H](Cc1ccc(O)c(O)c1)C(=O)O [Salvianolic acid A, salvianolic acid A] |  |  |  |  |  |  |  |  | 1.26 ± 0.05 | 1.80 ± 0.81 | 1.02 ± 0.14
O=C(/C=C/c1ccc(O)c(O)c1)O[C@H](Cc1ccc(O)c(O)c1)C(=O)O [Rosmarinic acid, rosmarinic acid] |  |  | substrates |  |  | 70.8 ± 6.4 | 2.55 |  | 1.04 ± 0.18 | 1.24 ± 0.45 | 46.8 ± 10.9
